According to patent US20110237508A1, “Peptide Formulations and Uses Thereof” (RIJKSUNIVERSITEIT GRONINGEN, priority 2008, published 2011):

What was measured:
[1] = oral tablets, simulated tropical conditions; cited from earlier work
[2] = Oxytocin recovery by RP-HPLC after 4 weeks storage at 4 or 55° C.; type: physicochemical; details: pH 4.5, 4 weeks
Protocol: As shown herein below, the stabilizing effect of the combination of a buffer and at least one source of divalent metal ions at a concentration of at least 2 mM in an aqueous oxytocin formulation was determined by measuring the recovery of oxytocin (remaining oxytocin as % of initial amount), the amount of oxytocin-monomers (% of total remaining oxytocin) and/or the level of aggregation (aggregated oxytocin as % of total remaining oxytocin) upon prolonged storage at elevated (e.g. 55° C.) temperatures. These parameters can be assessed by using any method for analysis deemed suitable by a person skilled in the art. Examples of suitable methods for analysis include, but are not limited to, reversed-phase high-performance liquid chromatography (RP-HPLC) and high-performance size exclusion chromatography (HP-SEC). Thus, suitable concentrations of divalent metal ions to achieve the stabilizing effect at elevated temperatures can be determined by those skilled in the art. They may vary, e.g. depending on the composition of the formulation or its intended application. In one embodiment, a formulation comprises oxytocin or vasopressin and at least 2 mM, preferably at least 5, more preferably at least 10 mM divalent metal ions and a buffer. In another embodiment, a pH-buffered formulation comprises divalent metal ions in a concentration of up to 150 mM, preferably up to 100 mM, more preferably up to 50 mM. For example, a formulation comprises divalent metal ions in a concentration between 5 and 150 mM, preferably between 10 and 100 mM, more preferably between 10 and 50 mM. In one embodiment, between 2 and 150 mM divalent metal ions, preferably 5-100 mM, such as 10, 20, 25, 30, 40 or 50 mM, and a buffer are used to stabilize an aqueous peptide formulation. In another embodiment, a divalent metal ion concentration in the range from 20 to 100 mM is used, like 30-100 mM, 40-80 mM or 50-70 mM. Other suitable ranges include between 2 and 50 mM, between 30 and 60 mM and between 40 and 70 mM divalent metal ions. […]
Samples of each formulation were stored for 4 weeks at 4° C. (control) or 55° C. (test). Thereafter, all samples were stored under cooled conditions (2-8° C.) before analysis by RP-HPLC and HP-SEC. Effects on stability were determined by measuring the recovery of oxytocin and the percentage of oxytocin-monomers.
The thermal stability of oxytocin in the presence of combinations of a buffer and monovalent metal ions was investigated. Citrate buffer (CB), acetate buffer (AC) or aspartate buffer (AP) was used at a concentration of 10 mM. Monovalent metal ions Na^+ and K^+ were added in the form of their chloride salt (NaCl and KCl) and used in final concentrations of 10 and 20 mM. […] Samples of each formulation were stored for 4 weeks at 4° C. (control) or 55° C. (test). Thereafter, all samples were stored under cooled conditions (2-8° C.) before analysis by RP-HPLC and HP-SEC. Effects on stability were determined by measuring the recovery of oxytocin and the percentage of oxytocin-monomers.
(§1) Citrate buffer (CB) was used at concentrations of 5, 10 or 50 mM. Divalent metal ions (Ca^2+, Mg^2+ and Zn^2+) were added in the form of their chloride salt (CaCl2, MgCl2 and ZnCl2) and used in final concentrations of 0, 2, 5, 10 or 50 mM. […] Samples of each formulation were stored for 4 weeks at 4° C. (control) or 55° C. (test). Thereafter, all samples were stored under cooled conditions (2-8° C.) before analysis by RP-HPLC and HP-SEC. Effects on stability were determined by measuring the recovery of oxytocin and the percentage of oxytocin-monomers. The results are presented in FIGS. 4A and 4B (citrate buffer with Ca^2+), 5A and 5B (citrate buffer with Mg^2+) and 6A and 6B (citrate buffer with Zn^2+).
Divalent metal ions (Ca^2+, Mg^2+ and Zn^2+) were added in the form of their chloride salt (CaCl2, MgCl2 and ZnCl2) and used in final concentrations of 0, 2, 5, 10 or 50 mM. […] Samples of each formulation were stored for 4 weeks at 4° C. […]

[3] = Oxytocin monomer recovery by HP-SEC after 4 weeks storage at 4 or 55° C.; type: physicochemical; details: pH 4.5, 4 weeks
Protocol: As shown herein below, the stabilizing effect of the combination of a buffer and at least one source of divalent metal ions at a concentration of at least 2 mM in an aqueous oxytocin formulation was determined by measuring the recovery of oxytocin (remaining oxytocin as % of initial amount), the amount of oxytocin-monomers (% of total remaining oxytocin) and/or the level of aggregation (aggregated oxytocin as % of total remaining oxytocin) upon prolonged storage at elevated (e.g. 55° C.) temperatures. These parameters can be assessed by using any method for analysis deemed suitable by a person skilled in the art. Examples of suitable methods for analysis include, but are not limited to, reversed-phase high-performance liquid chromatography (RP-HPLC) and high-performance size exclusion chromatography (HP-SEC). Thus, suitable concentrations of divalent metal ions to achieve the stabilizing effect at elevated temperatures can be determined by those skilled in the art. They may vary, e.g. depending on the composition of the formulation or its intended application. In one embodiment, a formulation comprises oxytocin or vasopressin and at least 2 mM, preferably at least 5, more preferably at least 10 mM divalent metal ions and a buffer. In another embodiment, a pH-buffered formulation comprises divalent metal ions in a concentration of up to 150 mM, preferably up to 100 mM, more preferably up to 50 mM. For example, a formulation comprises divalent metal ions in a concentration between 5 and 150 mM, preferably between 10 and 100 mM, more preferably between 10 and 50 mM. In one embodiment, between 2 and 150 mM divalent metal ions, preferably 5-100 mM, such as 10, 20, 25, 30, 40 or 50 mM, and a buffer are used to stabilize an aqueous peptide formulation. In another embodiment, a divalent metal ion concentration in the range from 20 to 100 mM is used, like 30-100 mM, 40-80 mM or 50-70 mM. Other suitable ranges include between 2 and 50 mM, between 30 and 60 mM and between 40 and 70 mM divalent metal ions.
Divalent metal ions (Ca^2+, Mg^2+ and Zn^2+) were added as metal chloride salts (MC12) to a non-buffered formulation comprising oxytocin and pure water (W). The divalent metal ions were used at concentrations of 0, 2, 5, 10 and 50 mM. […] Effects on stability were determined by measuring the recovery of oxytocin and the percentage of oxytocin-monomers.
Samples of each formulation were stored for 4 weeks at 4° C. […] Effects on stability were determined by measuring the recovery of oxytocin and the percentage of oxytocin-monomers.
The thermal stability of oxytocin in the presence of combinations of a buffer and monovalent metal ions was investigated. […] Effects on stability were determined by measuring the recovery of oxytocin and the percentage of oxytocin-monomers. […]

[4] = Long-term stability study at 40° C., oxytocin recovery by RP-HPLC; type: physicochemical; details: 10 mM citrate buffer and 50 mM Ca2+, pH 4.5, 6 months at 40° C.
Protocol: (§2) A long-term stability study was performed to assess the thermal stability of pH-buffered oxytocin formulations comprising divalent metal ions over prolonged periods. Citrate buffer (CB) was added in concentrations of 5, 10 or 50 mM to formulations comprising 0.1 mg/ml oxytocin and 0, 10 or 50 mM Ca^2+ (CaCl2). […] Samples of each formulation were stored for 1, 2, 3 or 6 months at 40° C. Thereafter, all samples were stored under cooled conditions (2-8° C.) before analysis by RP-HPLC and HP-SEC. Effects on stability were determined by measuring the recovery of oxytocin and the percentage of oxytocin-monomers.

[5] = Long-term stability study at 40° C., oxytocin monomers by HP-SEC; type: physicochemical; details: 10 mM citrate buffer and 50 mM Ca2+, pH 4.5, 6 months at 40° C.
Protocol: as §2

[6] = Precipitation of oxytocin in citrate buffer with Ca2+; type: physicochemical; details: 100 mM Ca2+
Protocol: as §1, with “of” for “of 5, 10 or 50 mM. Divalent metal ions (Ca^2+, Mg^2+ and Zn^2+) were added in the form of their chloride salt (CaCl2, MgCl2 and ZnCl2) and used in final concentrations of 0, 2,”

[7] = cited from earlier work

CC[C@H](C)[C@@H]1NC(=O)[C@H](Cc2ccc(O)cc2)NC(=O)CCSSC[C@@H](C(=O)N2CCC[C@H]2C(=O)N[C@@H](CC(C)C)C(=O)NCC(N)=O)NC(=O)[C@H](CC(N)=O)NC(=O)[C@H](CCC(N)=O)NC1=O [desamino-oxytocin]
stability of tablets [1]: not stable

C[C@@H](CO)NC(=O)[C@@H]1C=C2c3cccc4[nH]cc(c34)C[C@H]2N(C)C1 [ergometrine]
stability of tablets [1]: not stable

CC[C@H](C)[C@@H]1NC(=O)[C@H](Cc2ccc(O)cc2)NC(=O)[C@@H](N)CSSC[C@@H](C(=O)N2CCC[C@H]2C(=O)N[C@@H](CC(C)C)C(=O)NCC(N)=O)NC(=O)[C@H](CC(N)=O)NC(=O)[C@H](CCC(N)=O)NC1=O [oxytocin]
original quantity of oxytocin recovered ([2]; 10 mM acetate buffer & 10 mM Na+): ≤ 35% | remaining percentage of oxytocin ([2]; 10 mM acetate buffer with 50 mM Ca2+, 50 mM Mg2+ or 50 mM Zn2+): Small increases | stabilizing effect ([2]; 10 mM aspartate buffer with Ca2+ or Mg2+): only smaller effects | stabilizing effect ([2]; 10 mM aspartate buffer with Zn2+ (2-50 mM)): strong concentration-dependent stabilizing effect | oxytocin remained ([2]; 10 mM aspartate buffer with Zn2+): Up to 75% | thermal stability of oxytocin ([2]; 10 mM citrate, acetate or aspartate buffer with 10 or 20 mM Na+ or K+): minor effects | oxytocin stability ([2]; 50 mM citrate buffer with Ca2+): only increased together with 50 mM Ca^2+ | oxytocin stability ([2]; 50 mM citrate buffer with Mg2+): only increased at 50 mM Mg^2+ | oxytocin stability ([2]; 50 mM citrate buffer with Zn2+): only increased at 50 mM Zn^2+ | oxytocin stability ([2]; 5 or 10 mM citrate buffer and 50 mM Ca2+): Largest increases in stability | oxytocin stability ([2]; 5 or 10 mM citrate buffer and 50 mM Mg2+): largest increases in stability | oxytocin stability ([2]; citrate buffer with 2 or 5 mM Zn2+): large increases in stability | oxytocin stability ([2]; citrate, acetate or aspartate buffer, no divalent metal ions): small increase | remaining oxytocin in monomeric form ([3]; 10 mM acetate buffer & 10 mM Na+, 55° C.): around 30% | percentage of oxytocin monomers ([3]; citrate buffer with Ca2+, 55° C.): up to 80% | percentage of remaining oxytocin monomers ([3]; citrate buffer with Zn2+, 55° C.): up to 90% | remaining oxytocin-monomers ([3]; non-buffered pure water with divalent metal ions, 4 or 55° C.): loss of monomers was only prevented at 4 °C in the presence of Ca^2+ or Zn^2+ | original amount of oxytocin preserved [4]: around 70% | portion remained in monomeric form [5]: more than 80% | precipitation [6]: precipitates were observed | effect on oxytocin stability ([7]; dissolved in commercially obtainable lactated Ringer's solution): no effect on oxytocin stability at all | stability of oxytocin ([7]; in Ringer's, room temperature, 0.08 IU/ml): already compromised after 30 days | stability of tablets [1]: not stable
